Common to all, as to format: physicochemical
Series [1] is described as follows: Maximum absorption wavelength (λmax) after color development, spectrophotometer MCPD3000. Particulars: after color development. As to the method: (§1) • [1] Maximum Absorption Wavelength (λmax): The maximum absorption wavelength after color development, measured using a spectrophotometer (instantaneous multichannel photodetector MCPD3000) manufactured by Otsuka Electronics Co., Ltd. was used as an indicator for the color tone during the color development. • [2] 23°C Color Optical Density (A23): A difference between an absorbancy measured after light irradiation at 23°C for 240 seconds {ε(240)} and an absorbancy without light irradiation ε(0) at the maximum absorption wavelength was used as an indicator for the color optical density. […] 35°C Color Optical Density (A35): A difference between an absorbancy measured after light irradiation at 35°C for 240 seconds {ε(240)} and an absorbancy without light irradiation ε(0) at the first and second absorption wavelengths was used as an indicator for the color optical density. […] 23°C color fading half-life [τ1/2 (sec.)]: A time required for the absorbancy of the sample at the maximum absorption wavelength to decrease to 1/2 of {ε(240)-ε(0)} when the light irradiation is terminated after the light irradiation at 23°C for 240 seconds, was used as an indicator for the color fading speed. The shorter this time, the higher the color fading speed. • [6] Residual rate (A90/A0×100): The obtained photochromic plastic lens was subjected to accelerated deterioration using a xenon weather meter X25 manufactured by Suga Test Instruments Co., Ltd. for 90 hours. Subsequently, the color optical density was evaluated before and after the test, then a color optical density before the test (A0) and a color optical density after the test (A90) were measured, and a ratio (A90/A0) was defined as a residual rate. The residual rate was used as an indicator for a color developing durability. The higher the residual rate, the higher the color developing durability.

A short description of series [2]: High-temperature color development rate (A35/A23×100), temperature dependency. As to the method:
as §1

Series [3] is described as follows: Residual rate (A90/A0×100) after 90 h accelerated deterioration in xenon weather meter X25, color developing durability. Particulars: after 90 h accelerated deterioration. As to the method:
as §1

Setting [4] is: photochromic laminate prepared by coating method.
The mark [5] stands for this setting: photochromic cured product, thickness 1 mm (kneading method).

“And” between values parts separate entries of the source, which are not always exact repeats. Equal values may be shown once.

On to `CCCCCCOc1ccc(C2(c3ccc(OCCCCCC)cc3)C=Cc3c4c(c5cc(N6CCc7cc(OC)ccc76)c(OC)cc5c3O2)-c2ccc(-c3ccc(C(F)(F)F)cc3)cc2C42CC(C)(C)CC(C)(C)C2)cc1` [Formula (48A)], for which the Maximum absorption wavelength in series [1] (binder sheet (binder method)) and in series [1] (setting [4]) was 539 nm each time. Also, the “A35/A23 *100” value in series [2] (binder sheet (binder method)) and in series [2] (setting [4]) was 62% each time. Moreover, the Residual rate in series [3] (binder sheet (binder method)) worked out at 84%; in series [3] (setting [4]) it was 69%.
As for `COc1ccc(C2(c3ccc(OC)c(OC)c3)C=Cc3c4c(c5cc(N6CCc7ccccc76)c(OC)cc5c3O2)-c2ccccc2C4(CCC(F)(F)F)CCC(F)(F)F)cc1` (stereo not drawn) [Formula (67A)], the Maximum absorption wavelength was 527 nm in series [1] (binder sheet (binder method)), 531 nm in series [1] (setting [5]) and 527 nm in series [1] (setting [4]). For the same compound, the “A35/A23 *100” value was determined as 66% in series [2] (binder sheet (binder method)), 67% in series [2] (setting [5]) and 66% in series [2] (setting [4]). Moreover, the values for the Residual rate in series [3] (binder sheet (binder method)), in series [3] (setting [5]) and in series [3] (setting [4]) were 83%, 75% and 73%, respectively.
Take `CCCOc1ccc(C2(c3ccc(OCCC)cc3)C=Cc3c4c(c5cc(N6CCc7cc(C(F)(F)F)ccc76)c(OC)cc5c3O2)-c2ccccc2C4(CCC)CCC)cc1` [Formula (54A)]: the Maximum absorption wavelength in series [1] (setting [4]) is 592 nm and 486 nm. Also, the “A35/A23 *100” value in series [2] (setting [4]) is 66% and 67%. The compound also registered a Residual rate in series [3] (setting [4]) of 69%.
For the compound `CCCOc1ccc(C2(c3ccc(OCCC)cc3)C=Cc3c4c(c5cc(N6CCc7ccccc76)c(OC)cc5c3O2)-c2ccc(-c3ccc(C)cc3)cc2C42CCCCCCC2)cc1` [Formula (35A)], the Maximum absorption wavelength worked out at 531 nm in series [1] (binder sheet (binder method)), 535 nm in series [1] (setting [5]) and 531 nm in series [1] (setting [4]). Also, the “A35/A23 *100” value was determined as 78% in series [2] (binder sheet (binder method)), 80% in series [2] (setting [5]) and 78% in series [2] (setting [4]). The Residual rate is 90% in series [3] (binder sheet (binder method)), 80% in series [3] (setting [5]) and 75% in series [3] (setting [4]).
As to `CCCOc1ccc(C2(c3ccc(OC)cc3)C=Cc3c4c(c5cc(N6CCc7ccccc76)c(C)cc5c3O2)-c2ccc(-c3ccc(F)c(F)c3F)cc2C4(CCCCOC)CCCCOC)cc1F` (stereo not drawn) [Formula (78A)], the Maximum absorption wavelength turned out to be 523 nm in series [1] (binder sheet (binder method)) and 524 nm in series [1] (setting [4]). Also, the “A35/A23 *100” value in series [2] (binder sheet (binder method)) and in series [2] (setting [4]) was 68% throughout. The Residual rate in series [3] (binder sheet (binder method)) amounted to 82%; in series [3] (setting [4]), 64%.
`CCCC1(C)c2cc(Oc3ccccc3)ccc2-c2c1c1c(c3cc(OC)c(N4CCc5ccccc54)cc23)OC(c2ccc(OC)cc2)(c2ccc3c(c2)CCO3)C=C1` (stereo not drawn) [Formula (70A)]: the Maximum absorption wavelength was 535 nm in series [1] (binder sheet (binder method)), 540 nm in series [1] (setting [5]) and 536 nm in series [1] (setting [4]). The “A35/A23 *100” value in series [2] (binder sheet (binder method)) amounted to 77%; in series [2] (setting [5]) it was 78%; in series [2] (setting [4]) it was 77%. Also, the Residual rate is on record as 82% in series [3] (binder sheet (binder method)), 77% in series [3] (setting [5]) and 71% in series [3] (setting [4]).
On to `COc1ccc(C2(c3ccc(OC)cc3)C=Cc3c4c(c5cc(N6CCc7ccccc76)c(-c6ccc(OC)cc6OC)cc5c3O2)-c2ccccc2C4(C)C)cc1` [Formula (I), reference compound], for which the Maximum absorption wavelength in series [1] (binder sheet (binder method)) stood at 522 nm; in series [1] (setting [5]), 526 nm; in series [1] (setting [4]), 522 nm. The results for the “A35/A23 *100” value in series [2] (binder sheet (binder method)), in series [2] (setting [5]) and in series [2] (setting [4]) were 72%, 73% and 71%, respectively. Further, the figures for the Residual rate in series [3] (binder sheet (binder method)), in series [3] (setting [5]) and in series [3] (setting [4]) were 84%, 74% and 71%, respectively.
Turning to `COc1ccc(C2(c3ccc(N4CCOCC4)cc3)C=Cc3c4c(c5cc(N6CCc7ccccc76)c(C)cc5c3O2)-c2ccc(OC)cc2C4(CCCC(F)(F)F)CCCC(F)(F)F)cc1` (stereo not drawn) [Formula (45A)], the Maximum absorption wavelength in series [1] (setting [4]) was 489 nm and 596 nm. In series [2] (setting [4]), the “A35/A23 *100” value worked out at 67%. Further, the Residual rate in series [3] (setting [4]) came out at 65%.
